Assay: Dissolution rate of orlistat powder raw material
Type: physicochemical
Procedure: Orlistat is a drug having a melting point as low as 43° C., and is commercially available in a powder form. The dissolution rate of orlistat undergoing no denaturation under good storage conditions is about 60%. […] In addition, when raw materials of orlistat are exposed to high temperature during transport, the powder particles of orlistat rapidly aggregate. Thereafter, the aggregates remain even when being cooled, causing damage to the dissolution of orlistat.

## CCCCCCCCCCC[C@@H](C[C@@H]1OC(=O)[C@H]1CCCCCC)OC(=O)[C@H](CC(C)C)NC=O [orlistat]
Orlistat raw material exposed to high temperature during transport, particles aggregated
  dissolution rate: ≤ 40%
Orlistat undergoing no denaturation under good storage conditions
  dissolution rate: about 60%

— patent US20080200536A1, “Pharmaceutical Formulation with High Stability and Dissolution and Manufacturing Process” (BORAM PHARM.CO., LTD, priority 2005, published 2008)
